The values below come from US4771041A, “Method for combating virus infection” (priority 1976, dated 1988).

The inhibition is the drop in the measured response relative to a control, in per cent. The term LD50 denotes the dose expected to kill half of the subjects tested.

Each structure is given as a SMILES string.

The conditions of data set [1]: guinea pig, in vivo. Here is the method:
Phosphonoformic acid and phosphonoacetic acid were used as their trisodium and disodium salts, respectively. The test substances were used in 1% solutions.
Guinea-pigs of the Dunkin-Hartley strain of both sexes and weighing 200-300 g were used. The back of the animal was shaved and depilated with Opilca® on the day before starting the application of the solutions. The back was divided into six squares in the middle of which 30 μl of the test solutions was applied. In a given group of animals the different solutions were applied in a randomized order alternating between sites. However, the same site was used for repeated application of a given solution.
The irritation was scored on scales of 0 to 3, each grade corresponding to the following specific criteria of irritation:
1=slight erythema or edema or no hair growth
2=moderate erythema or edema or skin discoloration
3=marked erythema or edema or necrosis including crust formation.
The scoring was carried out blindly using coded solutions.
The scores of all the applications for a given solution and time were added and the average score was calculated.
The solvent used was a mixture of glycerol 10.0% (w/v), Tween 80 0.1% and aq sterile ad 100. All solutions were adjusted to pH 6.5 with hydrochloric acid or aqueous sodium hydroxide as required. Thirty μl of 1.0% solutions of phosphonoformic acid and phosphonoacetic acid respectively was applied twice daily during three days to each of six guinea pigs.

Data set [2] deals with herpes simplex type 2 patient isolates. The experiment in a line: Herpes simplex type 2 plaque reduction assay on SIRC monolayers. To be noted: Human alphaherpesvirus 2. The format is cell-based. How it is done: The inhibition of influenza virus and herpes virus by phosphonoformic acid has been measured as plaque reaction according to the following procedures.
The plaque reduction assay for herpes simplex type 1 was performed on GMK (Green Monkey Kidney) cells as described by Ejereito et el., J. Gen. Virol. 2 (1968) 357. Monolayers on 5 cm petri dishes were used and after virus adsorption phosphonoformic acid was added in the medium.
I. Inhibition by phosphonoformic acid of herpes simplex type 2 plaque
The plaque reduction assay for herpes simplex type 2 was performed in the same way as in experiment H. The results are shown in Table 9.
In general terms: In a plaque reduction assay, fewer plaques than in the control indicate reduced infectivity or spread.

In data set [3] the test system is cutaneous herpes type 1. To be noted: trisodium salt in topical preparations according to examples 15, 16 and 17; preliminary experiments.
The nature of data set [4]: Toxicity controls with substance in uninfected mice. It is filed as in vivo. The source says: Toxicity controls with substance were given to uninfected animals.
On the set-up of data set [5]: species or system Cynomolgus monkeys. The settings on record: cynomolgus monkey, in vivo. How it is done: Phosphonoformic acid, also denoted PFA and phosphonoacetic acid, also denoted PAA were used in the form of their trisodium and disodium salt, respectively. The following equimolar compositions of the two test compounds were used: […]
Two adult male Cynomolgus monkeys were treated once daily for 7 days with PFA or PAA in Arlatone cream. Treatment was done both by topical application of 0.2 ml cream on an area of 3×7 cm on the upper part of the arms and by application of 0.2 ml of cream on the penis and the adjacent skin. During application of cream, the animals were lightly anaesthetized with Ketalar®, given intramuscularly. All applications were 0.2 ml each on day 6/3, 7/3, 8/3, 9/3, 10/3, 11/3 and 12/3 1978.

Data set [6] concerns the target Micrococcus luteus DNA dependent DNA polymerase (Micrococcus luteus, UniProt C5CBM1). The data set is described as follows: Inhibition of Micrococcus luteus DNA dependent DNA polymerase. The format is biochemical. How it is done:
Polymerases, nucleic acid template nucleoside triphosphates, of which guanosine triphosphate is tritium-labelled, salt and buffer are mixed at 0° C. in a total volume of 125 μl (for herpes DNA polymerase, see F. below). The concentrations of the nucleoside triphosphates UTP (uridine triphosphate), CTP (cytidinetriphosphate), GTP (guanosinetriphosphate) and ATP (adenosinetriphosphate) were generall 400, 400, 400, and 2000 μM, respectively. The test compound is also added in various concentrations to the mixture obtained. A standard mixture without test compound is also prepared using the same amounts of the ingredients. The enzyme reaction, i.e. synthesis of nucleic acid, is started by incubating the mixture at 37° C. For influenza RNA polymerases the temperature is 33° C. The reaction is allowed to proceed for 60 minutes in the assay of influenza and Micrococcus polymerases. […] The incorporation of labelled monomer into trichloroacetic acid insoluble nucleic acid product was measured in the following way. […] After drying the discs are measured for radioactivity in a liquid scintillation counter. The difference in radioactivity between samples with and without added compound is used to calculate the inhibition of the polymerase activity. The inhibition is expressed as percentage inhibition using the radioactivity of the standard sample as basis. […]

Data set [7] addresses T1, reverse transcriptase from BaEV (Baboon endogenous virus, UniProt P10272).
T1 construct: Reverse transcriptase from various retroviruses have been tested in cell-free assays
The data set is described as follows: Cell-free reverse transcriptase inhibition, BaEV. The settings on record: template/primer (rA)n.(dT)10, read-out: Percent inhibition. It is filed as biochemical. How it is done: (§1) Reverse transcriptase from various retroviruses have been tested in cell-free assays for inhibition by phosphonoformic acid and phosphonoacetic acid. The assay conditions have been described by Collaborative Research, Inc, 1365 Main Street, Waltham, Mass., USA "Assay kit for mammalian viral reverse transcriptase". BLV and VV were prepared in this laboratory and all other viruses and viral enzyme were obtained from Dr. K Nilsson, Department of Pathology, University of Uppsala and from Boehringer Mannheim, Germany. Phosphonoformic acid (PFA) and phosphonoacetic acid (PAA) were added at pH 7.2 to the reaction mixtures at the start of the reaction.
(§2) Rauscher murine leukemia virus; RMuLV, visna virus; VV, avian myeloblastosis virus; AMV, bovine leukemia virus; BLV, baboon endogenous virus; BaEV, simian sarcoma virus; SSV.

Data set [8] has as its target T2, reverse transcriptase from VV (Maedi visna virus, UniProt P03370).
T2 construct: Reverse transcriptase from various retroviruses have been tested in cell-free assays; made in house
The experiment in a line: Cell-free reverse transcriptase inhibition, VV. The format is biochemical. The settings on record: template/primer (rA)n.(dT)10, read-out: Percent inhibition. How it is done:
as §1, §2

Data set [9] can be described thus: Acute toxicity in mice. To be noted: mouse, in vivo, ip, as sodium salt, male NMRI mice. Set-up: species or system male mice of NMRI strain. Here is the method: Phosphonoformic acid was tested for acute toxicity in mice. The compound (as its sodium salt) was given as solution i.p. in doses of 250, 500, 1000, 2000 and 4000 μmol/kg. Groups of 4 male mice of NMRI strain weighing 18.5-20.5 g were used for each dose.

T1 sequence (P10272 659-1335): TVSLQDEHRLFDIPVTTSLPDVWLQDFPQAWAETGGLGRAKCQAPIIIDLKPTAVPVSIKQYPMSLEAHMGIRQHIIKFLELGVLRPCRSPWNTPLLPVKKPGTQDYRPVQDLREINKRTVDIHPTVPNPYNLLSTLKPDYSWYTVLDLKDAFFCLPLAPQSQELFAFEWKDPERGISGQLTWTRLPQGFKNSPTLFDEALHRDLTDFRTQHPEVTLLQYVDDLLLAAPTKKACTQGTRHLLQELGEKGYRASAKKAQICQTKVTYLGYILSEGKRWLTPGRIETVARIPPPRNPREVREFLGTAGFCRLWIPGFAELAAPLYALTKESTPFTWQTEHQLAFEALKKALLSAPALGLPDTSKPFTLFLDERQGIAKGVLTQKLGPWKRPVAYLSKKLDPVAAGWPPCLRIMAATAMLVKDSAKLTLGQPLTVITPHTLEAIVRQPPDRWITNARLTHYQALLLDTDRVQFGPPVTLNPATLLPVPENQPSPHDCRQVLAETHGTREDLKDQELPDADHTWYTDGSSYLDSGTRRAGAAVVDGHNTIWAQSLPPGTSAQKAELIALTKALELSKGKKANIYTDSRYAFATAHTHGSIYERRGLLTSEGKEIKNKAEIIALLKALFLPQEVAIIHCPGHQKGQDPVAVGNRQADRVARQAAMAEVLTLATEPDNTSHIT
T2 sequence (P03370 541-1111): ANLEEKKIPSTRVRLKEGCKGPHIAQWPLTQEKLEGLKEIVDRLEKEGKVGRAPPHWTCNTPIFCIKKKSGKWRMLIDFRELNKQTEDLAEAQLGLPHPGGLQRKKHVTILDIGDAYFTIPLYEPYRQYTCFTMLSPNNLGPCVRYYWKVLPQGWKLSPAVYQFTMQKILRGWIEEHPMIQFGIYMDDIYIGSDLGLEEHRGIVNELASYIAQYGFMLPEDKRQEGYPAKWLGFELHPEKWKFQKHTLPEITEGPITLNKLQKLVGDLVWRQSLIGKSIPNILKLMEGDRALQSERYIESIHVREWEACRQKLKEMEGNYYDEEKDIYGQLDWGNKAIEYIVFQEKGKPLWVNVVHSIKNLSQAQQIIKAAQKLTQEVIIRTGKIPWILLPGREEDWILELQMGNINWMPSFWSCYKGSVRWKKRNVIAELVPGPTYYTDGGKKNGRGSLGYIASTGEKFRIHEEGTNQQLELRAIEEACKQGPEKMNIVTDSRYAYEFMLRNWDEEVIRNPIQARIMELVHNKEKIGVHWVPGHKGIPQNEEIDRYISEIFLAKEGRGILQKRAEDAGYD
Micrococcus luteus DNA dependent DNA polymerase, sequence (C5CBM1 entry or part of it): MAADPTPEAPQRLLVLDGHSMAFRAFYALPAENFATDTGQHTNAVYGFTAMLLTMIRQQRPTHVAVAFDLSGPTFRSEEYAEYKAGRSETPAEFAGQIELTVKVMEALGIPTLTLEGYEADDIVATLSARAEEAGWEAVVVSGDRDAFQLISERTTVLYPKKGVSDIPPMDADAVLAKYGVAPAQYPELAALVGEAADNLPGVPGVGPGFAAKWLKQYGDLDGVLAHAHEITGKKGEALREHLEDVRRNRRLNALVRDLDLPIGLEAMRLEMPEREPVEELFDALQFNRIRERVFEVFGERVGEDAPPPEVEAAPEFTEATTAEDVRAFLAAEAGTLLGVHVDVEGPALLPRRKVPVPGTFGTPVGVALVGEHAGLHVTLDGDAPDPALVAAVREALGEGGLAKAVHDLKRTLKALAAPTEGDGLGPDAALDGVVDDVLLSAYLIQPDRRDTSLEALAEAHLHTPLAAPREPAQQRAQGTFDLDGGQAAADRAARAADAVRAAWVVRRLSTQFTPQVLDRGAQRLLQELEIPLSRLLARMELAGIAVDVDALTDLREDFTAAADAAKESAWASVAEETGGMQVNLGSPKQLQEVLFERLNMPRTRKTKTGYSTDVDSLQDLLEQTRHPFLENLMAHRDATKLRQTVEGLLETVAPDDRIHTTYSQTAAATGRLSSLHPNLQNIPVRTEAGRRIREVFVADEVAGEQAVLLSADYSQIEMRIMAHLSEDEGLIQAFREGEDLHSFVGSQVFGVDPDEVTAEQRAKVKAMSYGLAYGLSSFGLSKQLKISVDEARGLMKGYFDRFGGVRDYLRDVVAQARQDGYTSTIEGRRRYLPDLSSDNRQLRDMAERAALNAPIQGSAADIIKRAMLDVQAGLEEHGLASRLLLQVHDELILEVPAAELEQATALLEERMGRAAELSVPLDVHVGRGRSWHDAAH

Regarding `O=C(O)P(=O)(O)O` [phosphonoformic acid], the “skin condition after two weeks” value in data set [1] is on record as “the skin is normal with hair after two weeks”. The inhibition at 500 µM is 99.9% in data set [2], 6% in [6], over 99% in data set [7] (500 μM) and 99% in [8] (500 μM). Also, the therapeutic effect entry in data set [3] was “has a therapeutic effect”. Further, the “deaths in substance control group” value in data set [4] (0.5% in the drinking water, 10 mice) was “No mice died”. Further, in data set [4] (uninfected mice, 100 mg/kg/day, 10 animals), the “deaths in toxicity control group” value was “No mice died”. The “Result (skin irritation), area of application penis” value in data set [5] is listed as “No symptoms”. Moreover, the “Result (skin irritation), area of application upper arm” value in [5] is recorded as “No symptoms”. Further, in [7] (10 μM), the inhibition at 10 µM worked out at 96%. The inhibition at 100 µM in data set [7] (100 μM) was over 99%; in data set [8] (100 μM), 95%. Moreover, the 50% lethal dose (LD50) in data set [9] is 2000 to 4000 µmol/kg.
